Experimental data published in patent US11980667B2, “Short TAT oligomers for drug delivery” (The Trustees of Columbia University in the City of New York, priority 2017, dated 2024).

Tested on: 9L glioma tumors
Test: Single arrest study: IV versus IA-TCH (multi-spectral imaging and confocal microscopy)
Format: in vivo, rat
Method: Single Arrest Study. 9L glioma tumors were implanted into eight rats. […] Animals were sacrificed 15 minutes after injection. […] Brain tissues were also hematoxylin and eosin stained and imaged by confocal microscopy.

[1] = IV injection, confocal microscopy
[2] = IV injection, multi-spectral imaging

SMILES: N=C(N)NCCC[C@H](NC(=O)CNC(=O)c1ccc2c(c1)C(=O)OC21c2ccc(O)cc2Oc2cc(O)ccc21)C(=O)N[C@@H](CCCCN)C(=O)N[C@@H](CCCCN)C(=O)N[C@@H](CCCNC(=N)N)C(=O)N[C@@H](CCCNC(=N)N)C(=O)N[C@@H](CCC(N)=O)C(=O)N[C@@H](CCCNC(=N)N)C(=O)N[C@@H](CCCNC(=N)N)C(=O)N[C@@H](CCCNC(=N)N)C(=O)N1CCC[C@H]1C(=O)N1CCC[C@H]1C(=O)N[C@@H](CCC(N)=O)C(=O)N[C@@H](CCC(N)=O)C(=O)O [fluorescein-labeled TAT monomer, 5-FAM-GRKKRRQRRR PPQQ-COOH]
- Tumor selectivity (IA-TCH): 5-6 ×
- Fluorescence in the tumor versus the contralateral hemisphere (IA-TCH, confocal microscopy): 10.78 ×
- Fluorescence in the tumor versus the ipsilateral brain tissue (IA-TCH, confocal microscopy): 5.07 ×
- Fluorescence in the tumor versus the contralateral hemisphere (IA-TCH, multi-spectral imaging): 9.90 ×
- Fluorescence in the tumor versus the ipsilateral brain tissue (IA-TCH, multi-spectral imaging): 5.93 ×
- Fluorescence in the tumor versus the contralateral hemisphere [1]: 2.61 ×
- Fluorescence in the tumor versus the ipsilateral brain tissue [1]: 2.43 ×
- Fluorescence in the tumor versus the contralateral hemisphere [2]: 2.72 ×
- Fluorescence in the tumor versus the ipsilateral brain tissue [2]: 2.59 ×
- Tumor selectivity (IV injections): 2 ×
- Tumor concentration, IA-TCH relative to IV (rat, in vivo, iv): about four-fold greater
